Broadly, the fraction unbound is free concentration divided by total concentration. Usually bioavailability stands for dose-corrected exposure relative to a reference, in per cent. What is called half-life is the time in which the quantity being followed falls by half. Low values mean rapid decline, high ones slow decline. Usually Cmax stands for the peak of the concentration-time curve. Broadly, the microsomal CLint is the rate of metabolic loss divided by the concentration. High values mean faster metabolism, low ones greater metabolic stability. Usually AUC(0-t) stands for exposure summed from dosing to a finite time, without extrapolation to infinity. A low value points to less exposure. As usually defined, the Papp A→B is how fast a substance crosses the layer from the apical side. Broadly, the Papp B→A is the apparent permeability from the basolateral to the apical side of a cell layer. In general, efflux ratio refers to a quotient of directional permeabilities that is used to spot active efflux.

Each structure is given as a SMILES string.

The nature of data set [1]: Protein binding in human plasma assessed as fraction unbound at 0.5 uM measured after 5 hrs by LC-MS/MS analysis.
Data set [2] has as its target Lysophosphatidic acid receptor 2 (Homo sapiens, UniProt Q9HBW0).
Description: Antagonist activity at human LPA2 receptor expressed in CHO cells assessed as inhibition of LPA-induced calcium mobilization pretreated for 15 mins followed by LPA stimulation by FLIPR analysis
The nature of data set [3]: in vivo. The settings on record: C57BL/6J, mouse, po, 30 mg/kg.
The target of data set [4] is Lysophosphatidic acid receptor 2 (Mus musculus, UniProt Q9JL06). The experiment in a line: Antagonist activity at mouse LPA2 receptor expressed in HeLa cells assessed as inhibition of LPA-induced calcium mobilization pretreated for 15 mins followed by LPA stimulation by FLIPR analysis. Format: functional, cell-based. The note with it: read-out: pIC50 (converted). For orientation: A change in cytosolic calcium serves as a functional read-out for many receptors and channels.
Lysophosphatidic acid receptor 2 (Mus musculus, UniProt Q9JL06), sequence (Q9JL06 whole entry): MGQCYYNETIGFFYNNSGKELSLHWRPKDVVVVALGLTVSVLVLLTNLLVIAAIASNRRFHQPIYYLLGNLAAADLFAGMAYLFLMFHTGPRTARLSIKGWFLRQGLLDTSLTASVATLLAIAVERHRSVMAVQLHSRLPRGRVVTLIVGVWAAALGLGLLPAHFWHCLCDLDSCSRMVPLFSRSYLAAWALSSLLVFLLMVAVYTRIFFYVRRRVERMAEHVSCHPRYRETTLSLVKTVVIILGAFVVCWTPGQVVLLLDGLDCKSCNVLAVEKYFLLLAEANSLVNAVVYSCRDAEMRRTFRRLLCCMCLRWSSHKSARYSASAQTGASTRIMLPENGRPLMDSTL

A short description of data set [5]: Protein binding in mouse lungs assessed as fraction unbound at 5 uM measured after 5 hrs by LC-MS/MS analysis.
Data set [6] is described as follows: Half life in C57BL/6J mouse at 30 mg/kg, po and 2 mg/kg, iv by LC-MS/MS analysis. The note with it: in vivo.
Data set [7] is described as follows: in vivo. The note with it: C57BL/6J, mouse, plasma, po, 30 mg/kg.
Data set [8] in a line: in vitro. The settings on record: human, liver microsomes, CLH.
Description: Intrinsic clearance in human liver microsomes at 0.5 uM in presence of NADPH regenerating system measured for 45 mins per mg protein by LC-MS/MS analysis
Data set [9] in a line: in vivo. The note with it: C57BL/6J, mouse, lung, po, 30 mg/kg.
Data set [10] in a line: Protein binding in mouse plasma assessed as fraction unbound at 0.5 uM measured after 5 hrs by LC-MS/MS analysis.
For data set [11], the target named is Lysophosphatidic acid receptor 1 (Homo sapiens, UniProt Q92633).
Lysophosphatidic acid receptor 1, sequence (Q92633 whole entry): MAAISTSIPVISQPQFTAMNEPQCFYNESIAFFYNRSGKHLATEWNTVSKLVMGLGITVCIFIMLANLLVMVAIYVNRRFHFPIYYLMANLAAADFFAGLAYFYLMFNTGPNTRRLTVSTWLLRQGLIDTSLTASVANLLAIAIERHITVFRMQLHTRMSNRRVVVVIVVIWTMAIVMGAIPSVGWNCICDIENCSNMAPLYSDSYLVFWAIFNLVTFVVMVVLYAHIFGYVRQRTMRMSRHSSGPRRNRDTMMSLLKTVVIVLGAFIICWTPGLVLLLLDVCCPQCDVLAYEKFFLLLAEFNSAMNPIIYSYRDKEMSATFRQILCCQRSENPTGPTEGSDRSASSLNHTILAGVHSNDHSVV
Description: Antagonist activity at human LPA1 receptor expressed in CHO cells assessed as inhibition of LPA-induced calcium mobilization pretreated for 15 mins followed by LPA stimulation by FLIPR analysis
The nature of data set [12]: Apparent permeability across apical to basolateral side in human Caco-2 cells at 10 uM measured after 60 mins by LC-MS/MS analysis.
A short description of data set [13]: Apparent permeability across basolateral to apical side in human Caco-2 cells at 10 uM measured after 60 mins by LC-MS/MS analysis. On the technique in general: Caco-2 cells form a polarised layer with tight junctions and transporters.
Data set [14] in a line: Efflux ratio of apparent permeability across apical to basolateral to basolateral to apical side in human Caco-2 cells at 10 uM measured after 60 mins by LC-MS/MS analysis.
Data set [15] is described as follows: in vitro. The note with it: C57BL/6J, mouse, liver microsomes.
Description: Intrinsic clearance in C57BL/6J mouse liver microsomes at 0.5 uM in presence of NADPH regenerating system measured for 45 mins per mg protein by LC-MS/MS analysis
The nature of data set [16]: in vivo. The note with it: C57BL/6J, mouse, plasma, po, 30 mg/kg. This is another data set of the same source.
Data set [17] in a line: in vivo. The note with it: C57BL/6J, mouse, lung, po, 30 mg/kg. The source holds these as a separate data set.
A short description of data set [18]: Oral absorption in C57BL/6J mouse at 30 mg/kg by LC-MS/MS analysis. The note with it: in vivo.

Lysophosphatidic acid receptor 2 (Homo sapiens, UniProt Q9HBW0), sequence (Q9HBW0 whole entry): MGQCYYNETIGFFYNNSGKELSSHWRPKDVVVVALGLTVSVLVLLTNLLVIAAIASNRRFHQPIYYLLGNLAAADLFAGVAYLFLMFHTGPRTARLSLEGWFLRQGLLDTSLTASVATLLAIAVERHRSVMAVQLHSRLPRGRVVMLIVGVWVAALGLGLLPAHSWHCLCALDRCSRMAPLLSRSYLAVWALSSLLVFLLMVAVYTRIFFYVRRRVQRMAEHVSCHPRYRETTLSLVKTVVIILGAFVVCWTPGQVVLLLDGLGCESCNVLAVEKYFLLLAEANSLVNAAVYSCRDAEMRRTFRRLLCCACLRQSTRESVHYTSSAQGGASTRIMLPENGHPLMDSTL

On to `COC(=O)Nc1nc(C)c(S(=O)(=O)N2CCN(C[C@H](C)Nc3ncnc4c(-c5c(C)noc5C)cccc34)CC2)s1`, for which the fraction unbound at 5 h, 0.5 µM in data set [1] was below 0.01; in data set [10], 0.0043. The values for the IC50 in data set [2], in data set [4] and in data set [11] were 0.759 nM, 28.2 nM and above 50100 nM, respectively. This molecule also displayed a bioavailability in data set [3] of 92%. For the same molecule, in data set [5], the fraction unbound at 5 h, 5 µM stood at 0.0185. For the same molecule, the half-life in data set [6] is 1.32 h. Besides, the Cmax in data set [7] was 76200 ng/mL; in [17], 15100 ng/mL. Besides, the values for the microsomal CLint at 0.75 h, 0.5 µM in data set [8] and in [15] were 89 µL/min/mg and 94 µL/min/mg, respectively. Also, the AUC(0-t) is 25800 ng·h/mL in data set [9] and 124000 ng·h/mL in data set [16]. For the same molecule, the Papp A→B at 1 h, 10 µM in data set [12] amounted to 1.47 ×10⁻⁶ cm/s. In data set [13], the Papp B→A at 1 h, 10 µM was found to be 9.29 ×10⁻⁶ cm/s. The efflux ratio at 1 h, 10 µM in data set [14] worked out at 6.3. For the same molecule, the Fa in [18] was determined as 96%.
As to `COC(=O)Nc1nc(C)c(S(=O)(=O)N2CCN(C[C@H](C)Nc3ncnc4c(-c5sc(C)nc5C)cccc34)CC2)s1`, the fraction unbound at 5 h, 0.5 µM in data set [1] is 0.0002; in data set [10], 0.0372. Moreover, the IC50 in [2] is 0.251 nM; in data set [4], 6.92 nM; in [11], above 501 nM. Also, in [3], the bioavailability came out at 64%. Besides, the fraction unbound at 5 h, 5 µM in data set [5] stood at 0.022. In data set [6], this molecule gave a half-life of 1.88 h. The Cmax in data set [7] worked out at 72300 ng/mL; in data set [17], 19900 ng/mL. Further, the microsomal CLint at 0.75 h, 0.5 µM in data set [8] and in [15] was 15 µL/min/mg in each case. The figures for the AUC(0-t) in data set [9] and in data set [16] were 56200 ng·h/mL and 230000 ng·h/mL, respectively. In addition, the Papp A→B at 1 h, 10 µM in [12] came to 9.2 ×10⁻⁶ cm/s. The Papp B→A at 1 h, 10 µM in data set [13] came out at 5.39 ×10⁻⁶ cm/s. Moreover, in [14], the efflux ratio at 1 h, 10 µM was 0.6. Further, the Fa in data set [18] came to 76%.
For the molecule `COC(=O)Nc1nc(C)c(S(=O)(=O)N2CCN(C[C@H](C)Nc3ncnc4c(-c5cccc(CN(C)C)c5)cccc34)CC2)s1`, the results for the fraction unbound at 5 h, 0.5 µM in [1] and in data set [10] were 0.0003 and 0.0124, respectively. The IC50 in data set [2] is 0.331 nM; in data set [4], 4.79 nM; in [11], above 50100 nM. The molecule also came in with a bioavailability in data set [3] of 16%. The fraction unbound at 5 h, 5 µM in [5] amounted to 0.0177. In data set [6], this molecule showed a half-life of 2.6 h. In addition, the Cmax in [7] turned out to be 12100 ng/mL; in data set [17], 7030 ng/mL. Further, the microsomal CLint at 0.75 h, 0.5 µM is 38 µL/min/mg in [8] and 108 µL/min/mg in data set [15]. The AUC(0-t) in [9] turned out to be 43200 ng·h/mL; in data set [16], 34200 ng·h/mL. Moreover, the apparent permeability from apical to basolateral (Papp A→B) at 1 h, 10 µM in data set [12] worked out at 0.18 ×10⁻⁶ cm/s. The Papp B→A at 1 h, 10 µM in data set [13] is 10.6 ×10⁻⁶ cm/s. For the same molecule, the efflux ratio at 1 h, 10 µM in data set [14] amounted to 60. Besides, the Fa in data set [18] worked out at 17%.
As to `COC(=O)Nc1nc(C)c(S(=O)(=O)N2CCN(C[C@H](C)Nc3ncnc4c(-c5cccnc5C)cccc34)CC2)s1`, the IC50 is 0.447 nM in [2], 6.46 nM in data set [4] and above 50100 nM in data set [11]. The bioavailability in [3] was 67%. The fraction unbound at 5 h, 5 µM in data set [5] amounted to 0.0531. Besides, the half-life in [6] was 1.74 h. In addition, the Cmax in data set [7] came to 81200 ng/mL; in [17], 8450 ng/mL. The microsomal CLint at 0.75 h, 0.5 µM in data set [8] amounted to 21 µL/min/mg; in data set [15], 13 µL/min/mg. Further, the results for the AUC(0-t) in [9] and in data set [16] were 24300 ng·h/mL and 163000 ng·h/mL, respectively. Moreover, the fraction unbound at 5 h, 0.5 µM in data set [10] was 0.0616. For the same molecule, the Papp A→B at 1 h, 10 µM in data set [12] was 4.17 ×10⁻⁶ cm/s. Also, the Papp B→A at 1 h, 10 µM in [13] came out at 11.2 ×10⁻⁶ cm/s. In [14], the efflux ratio at 1 h, 10 µM worked out at 2.7. The same molecule had a Fa in data set [18] of 76%.

The record behind these values is ChEMBL document CHEMBL5385906, “Discovery of a Potent, Selective, and Orally Bioavailable Tool Compound for Probing the Role of Lysophosphatidic Acid Type 2 Receptor Antagonists in Fibrotic Disorders” (J Med Chem, 2023).
